Measured values from patent publication US20260250312A1, “ANTIBACTERIAL COMPOUNDS ELIMINATING DORMANT BACTERIAL CELLS” (UNIVERSITÉ D'AIX-MARSEILLE, priority 2022, published 2026).
Converted amounts (≈) assume the structure as drawn. “And” between values parts separate entries of the source, which are not always exact repeats. Identical values can stand only once. Like-named read-outs stand apart in the source and are kept apart here. Marks after values point to notes of the source that are not given here.

Legend:
CHO-K1 cells = assay: WST1 cytotoxicity test; assay type: cell-based, Chinese hamster
Summary of the method: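 CHO-K1 cells pre-cultured 24 h, then exposed 24 h at 37 °C to increasing compound concentrations. Viability read as WST-1 formazan absorbance at 450 nm after 20 min; dose-response fitted by nonlinear regression.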

[1] = test system: Escherichia coli (ATCC28922); assay: Microdilution MIC assay (CLSI-based), E. coli; assay type: cell-based; conditions: 20 hours incubation at 35-37° C., MHB; for MIC: Escherichia coli, ATCC28922, 20 h, read-out: Minimum inhibitory concentration E. coli ATCC28922
Summary of the method: (§1)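 Broth microdilution per modified CLSI guidelines in Mueller Hinton broth, 200 μL, inoculum ca. 5×10^5 CFU/mL; compounds tested as salts, twofold dilutions from 0.2 mg/mL, in triplicate. MIC determined from OD at 620 nm after incubation.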

[2] = test system: E. coli non-persister cells; assay: Anti-persister activity test, non-persister cells; assay type: cell-based, Escherichia coli; conditions: for viability at 62.5 µM: read-out: Non-persister cell survival rate 96 h, concentration used 62.5 μM, 4 hours treatment; for viability at 125 µM: read-out: Non-persister cell survival rate 96 h, concentration used 125 μM, 4 hours treatment
Description: (§2) Anti-persister activity test: Escherichia coli (E. coli) persister cells were generated and isolated as described by MARQUES, C. N. H. et al. (Applied and Environmental Microbiology 2014, Vol. 80, No. 22, pp. 6976-6991). E. coli persister cells were compared to E. coli non-persister cells. 1 mL persister or non-persister bacteria culture was added in a 1.5 mL microtube with each of the compounds to be tested or ciprofloxacin as a […], and incubated at 37° C. with 160 rpm shaking for 4 hours. After 4 hours treatment with the compounds, the microtubes were centrifuged at 3,500g for 5 minutes and the pellets were resuspended in 1 mL of fresh drug free RM broth (10 g/L M9 salt, 2% casamino acids, 1 mM MgCl2, 1% glycerol). Resuspended bacteria were then plated over LB agar plates and incubated at 37° C. Bacterial colonies were enumerated after 24, 48 and 96 hours to estimate the survival rate.

[3] = test system: Staphylococcus aureus (ATCC25923); assay: Microdilution MIC assay (CLSI-based), S. aureus; assay type: cell-based; conditions: 20 hours incubation at 35-37° C., MHB; for MIC: Staphylococcus aureus, ATCC25923, 20 h, read-out: Minimum inhibitory concentration S. aureus ATCC25923
Summary of the method: as §1

[4] = test system: Enterococcus faecalis (ATCC29212); assay: Microdilution MIC assay (CLSI-based), E. faecalis; assay type: cell-based; conditions: 20 hours incubation at 35-37° C., MHB; for MIC: Enterococcus faecalis, ATCC29212, 20 h, read-out: Minimum inhibitory concentration E. faecalis ATCC29212
Summary of the method: as §1

[5] = test system: Pseudomonas aeruginosa (ATCC27853); assay: Microdilution MIC assay (CLSI-based), P. aeruginosa; assay type: cell-based; conditions: 20 hours incubation at 35-37° C., MHB; for MIC: Pseudomonas aeruginosa, ATCC27853, 20 h, read-out: Minimum inhibitory concentration P. aeruginosa ATCC27853
Summary of the method: as §1

[6] = test system: Escherichia coli (E. coli) persister cells; assay: Anti-persister activity test, persister cells; assay type: cell-based; conditions: for anti-persister activity (in words): E. coli persister cells, Table 8 conditions; for viability at 62.5 µM: read-out: Persister cell survival rate 96 h, concentration used 62.5 μM, 4 hours treatment; for viability at 125 µM: read-out: Persister cell survival rate 96 h, concentration used 125 μM, 4 hours treatment
Description: as §2

[7] = Cricetulus griseus, CHO-K1, 24 h, WST1, 24 hours at 37° C., read-out: IC50 CHO
[8] = Cricetulus griseus, CHO-K1, WST1, as printed in Table 8, read-out: Toxicity IC50 CHO
[9] = WST1, 24 hours at 37° C., read-out: IC50 CHO
[10] = WST1, Table 8, read-out: Toxicity IC50 CHO
[11] = concentration used 125 μM, 4 hours treatment

| Structure (SMILES) | toxicity results (in words) (CHO-K1 cells) | IC50 (CHO-K1 cells; [7]) | IC50 (CHO-K1 cells; [8]) | MIC [1] | viability at 62.5 µM ([2]; Escherichia coli, 4 h) | MIC [3] | MIC [4] | MIC [5] | anti-persister activity (in words) [6] | viability at 62.5 µM ([6]; Escherichia coli, 4 h) | viability at 125 µM ([2]; Escherichia coli, 4 h) | viability at 125 µM ([6]; Escherichia coli, 4 h) | other results |
| --- | --- | --- | --- | --- | --- | --- | --- | --- | --- | --- | --- | --- | --- |
| COC(=O)[C@H](Cc1ccc(O)cc1)NC(=O)CC[C@@H](C)[C@H]1CCC2C3C(CC[C@@]21C)[C@@]1(C)CC[C@H](NCCCNCCCCNCCCN)C[C@H]1C[C@H]3O (stereo partly drawn) [Compound S039, methyl ((4R)-4-((3S,5S,7R,10S,13R,17R)-3-((3-((4-((3-aminopropyl)amino)butyl)amino)propyl)amino)-7-hydroxy-10,13-dimethylhexadecahydro-1H-cyclopenta[a]phenanthren-17-yl)pentanoyl)-L-tyrosinate] | good toxicity results | 60 µM and 45.3 µg/mL | 60 µM | 6.25 µM and 4 µg/mL | 2.7% | 6.25 µM and 4 µg/mL | 12.5 µM and 8 µg/mL | 6.25 µM and 4 µg/mL | very potent anti-persister activity | 0% | – | – | – |
| CC[C@@H](C)[C@H](NC(=O)CC[C@@H](C)[C@H]1CC[C@H]2[C@@H]3[C@H](O)C[C@@H]4C[C@@H](NCCCNCCCCNCCCN)CC[C@]4(C)[C@H]3CC[C@]12C)C(=O)OC [Compound S044, methyl (2S,3R)-2-((4R)-4-((3S,5S,7R,10S,13R,17R)-3-((3-((4-((3-aminopropyl)amino)butyl)amino)propyl)amino)-7-hydroxy-10,13-dimethylhexadecahydro-1H-cyclopenta[a]phenanthren-17-yl)pentanamido)-3-methylpentanoate] | good toxicity results | 52.4 µM and 36.9 µg/mL | 52.4 µM | 6.25 µM and 4 µg/mL | 0% | 6.25 µM and 4 µg/mL | 6.25 µM and 4 µg/mL | 12.5 µM and 8 µg/mL | both anti-persister and anti-bacterial activities | 0% | – | – | – |
| COC(=O)[C@@H](Cc1ccccc1)NC(=O)CC[C@@H](C)[C@H]1CCC2C3C(CC[C@@]21C)[C@@]1(C)CC[C@H](NCCNCCNCCN)C[C@H]1C[C@H]3O (stereo partly drawn) [Compound S010, methyl ((4R)-4-((3S,5S,7R,10S,13R,17R)-3-((2-((2-((2-aminoethyl)amino)ethyl)amino)ethyl)amino)-7-hydroxy-10,13-dimethylhexadecahydro-1H-cyclopenta[a]phenanthren-17-yl)pentanoyl)-D-phenylalaninate] | good toxicity results | 114 µM and 77.4 µg/mL | 114 µM | 50 µM and 32 µg/mL | – | 12.5 µM and 8 µg/mL | 12.5 µM and 8 µg/mL | 50 µM and 32 µg/mL | very potent anti-persister activity | – | – | – | viability at 250 µM ([2]; Escherichia coli, 4 h, read-out: Non-persister cell survival rate 96 h, concentration used 250 μM, 4 hours treatment): 4.2%; viability at 250 µM ([6]; Escherichia coli, 4 h, read-out: Persister cell survival rate 96 h, concentration used 250 μM, 4 hours treatment): 0.8% |
| COC(=O)[C@H]1CCCN1C(=O)CC[C@@H](C)[C@H]1CCC2C3C(CC[C@@]21C)[C@@]1(C)CC[C@H](NCCCNCCNCCCN)C[C@H]1C[C@H]3O (stereo partly drawn) [Compound S046, methyl ((4R)-4-((3S,5S,7R,10S,13R,17R)-3-((3-((2-((3-aminopropyl)amino)ethyl)amino)propyl)amino)-7-hydroxy-10,13-dimethylhexadecahydro-1H-cyclopenta[a]phenanthren-17-yl)pentanoyl)-D-prolinate] | – | 9.53 µM and 6.29 µg/mL | 9.53 µM | 12.5 µM and 8 µg/mL | – | 12.5 µM and 8 µg/mL | 6.25 µM and 4 µg/mL | 12.5 µM and 8 µg/mL | very potent anti-persister activity | – | 0.3% | 0% | – |
| COC(=O)[C@H](NC(=O)CC[C@@H](C)[C@H]1CCC2C3C(CC[C@@]21C)[C@@]1(C)CC[C@H](NCCCNCCCN)C[C@H]1C[C@H]3O)C(C)C (stereo partly drawn) [Compound S048, methyl ((4R)-4-((3S,5S,7R,10S,13R,17R)-3-((3-((3-aminopropyl)amino)propyl)amino)-7-hydroxy-10,13-dimethylhexadecahydro-1H-cyclopenta[a]phenanthren-17-yl)pentanoyl)-D-valinate] | – | – | – | – | – | – | – | – | both anti-persister and anti-bacterial activities | – | – | – | IC50 CHO (CHO-K1 cells; WST1, 24 hours at 37° C.): 60.09 µg/mL (≈ 97.1 µM); IC50 (CHO-K1 cells; [9]): 97.1 µM; IC50 (CHO-K1 cells; [10]): 97.1 µM; Minimum inhibitory concentration E. coli ATCC28922 [1]: 6.25* μM and 4* μg/mL; Non-persister cell survival rate 96 h [2, 11]: 0.0%; Minimum inhibitory concentration S. aureus ATCC25923 [3]: 6.25* μM and 4* μg/mL; Minimum inhibitory concentration E. faecalis ATCC29212 [4]: 25* μM and 16* μg/mL; Minimum inhibitory concentration P. aeruginosa ATCC27853 [5]: 12.5* μM and 8* μg/mL; Persister cell survival rate 96 h [6, 11]: 0.0% |
| COC(=O)[C@H](NC(=O)CC[C@@H](C)[C@H]1CCC2C3CC[C@@H]4C[C@@H](NCCCNCCCCNCCCN)CC[C@]4(C)C3C[C@H](O)[C@@]21C)C(C)C (stereo partly drawn) [Compound S052, methyl ((4R)-4-((3S,5R,10S,12S,13R,17R)-3-((3-((4-((3-aminopropyl)amino)butyl)amino)propyl)amino)-12-hydroxy-10,13-dimethylhexadecahydro-1H-cyclopenta[a]phenanthren-17-yl)pentanoyl)-D-valinate] | good toxicity results | 50 µM and 34 µg/mL | 50 µM | 12.5 µM and 8 µg/mL | 0% | 3.12 µM and 2 µg/mL | 25 µM and 16 µg/mL | 12.5 µM and 8 µg/mL | both anti-persister and anti-bacterial activities | 0% | – | – | – |
| COC(=O)[C@H](NC(=O)CC[C@@H](C)[C@H]1CCC2C3C(CC[C@@]21C)[C@@]1(C)CC[C@H](NCCCNCCCN)C[C@H]1C[C@H]3O)C(C)C (stereo partly drawn) [Compound S047, methyl ((4R)-4-((3S,5S,7R,10S,13R,17R)-3-((3-((3-aminopropyl)amino)propyl)amino)-7-hydroxy-10,13-dimethylhexadecahydro-1H-cyclopenta[a]phenanthren-17-yl)pentanoyl)-D-valinate] | – | – | – | – | – | 6.25 µM and 4 µg/mL | – | – | both anti-persister and anti-bacterial activities | – | 0% | 0% | IC50 CHO (CHO-K1 cells; WST1, 24 hours at 37° C.): 57.61 µg/mL (≈ 93.1 µM); IC50 (CHO-K1 cells; [9]): 93.1 µM; IC50 (CHO-K1 cells; [10]): 93.1 µM; Minimum inhibitory concentration E. coli ATCC28922 [1]: 12.5* μM and 8* μg/mL; Minimum inhibitory concentration E. faecalis ATCC29212 [4]: 12.5* μM and 8* μg/mL; Minimum inhibitory concentration P. aeruginosa ATCC27853 [5]: 12.5* μM and 8* μg/mL |
| CC[C@H](C)[C@H](NC(=O)CC[C@@H](C)[C@H]1CC[C@H]2[C@@H]3[C@H](O)C[C@@H]4C[C@@H](NCCCNCCNCCCN)CC[C@]4(C)[C@H]3CC[C@]12C)C(=O)OC [Compound S041, methyl (2S,3S)-2-((4R)-4-((3S,5S,7R,10S,13R,17R)-3-((3-((2-((3-aminopropyl)amino)ethyl)amino)propyl)amino)-7-hydroxy-10,13-dimethylhexadecahydro-1H-cyclopenta[a]phenanthren-17-yl)pentanamido)-3-methylpentanoate] | – | 9.8 µM and 6.63 µg/mL | 9.8 µM | 12.5 µM and 8 µg/mL | – | 12.5 µM and 8 µg/mL | 12.5 µM and 8 µg/mL | 12.5 µM and 8 µg/mL | not as good on persister cells | – | 0% | 0.1% | activity on non-persister cells (in words) ([2]; E. coli non-persister cells, Table 8 conditions): good activity on non-persister cells |
